Where two headings read alike, the source gives them in different places.
Key:
[1] = from literature; cited from earlier work
[2] = tested on: mucin immobilized to PC IAM particles; assay: pH and mucin layer thickness dependence of partition ratio on MIC columns (1:2 and 2:1); conditions: for (1:2) k′ (pH 3) / (1:2) k′ (pH 5) / (1:2) k′ (pH 7): column 1:2 mucin to PC IAM, 0.32 μm mucin layer; for (1:2) k′ (pH 3) / (2:1) k′ (pH 3): mobile phase pH 3; for (1:2) k′ (pH 5) / (2:1) k′ (pH 5): mobile phase pH 5; for (1:2) k′ (pH 7) / (2:1) k′ (pH 7): mobile phase pH 7; for (2:1) k′ (pH 3) / (2:1) k′ (pH 5) / (2:1) k′ (pH 7): column 2:1 mucin to PC IAM, 0.36 μm mucin layer
Procedure: Samples were dissolved in mobile phase solution and filtered (filter pore size, 0.45 μm) prior to injection. […] From this measurement and a measurement of the void volume (t0) the k′MIC could be determined. In addition, from the molecular weight of the compounds, Dm could be determined. These compounds, with the exceptions noted below, were used to generate the column constant (Vm/Vs).
For these reasons, the influence of pH on drug retention times was measured on columns having two different mucin layer thicknesses, 0.32 μm (column prepared with a 1:2 wt % of mucin to PC IAM particles) and 0.36 μm (column prepared with a 2:1 wt % of mucin to PC IAM particles)(Table 8). […] The influence of pH on drug retention time was measured by using different mobile phase buffers adjusted to pH 3, 5 or 7 on either the 0.32 μm or 0.36 μm column.
Capacity factors were calculated from drug retention times collected on columns having two different mucin layer thicknesses, 0.32 μm (column prepared with a 1:2 wt % of mucin to PC IAM particles) and 0.36 μm (column prepared with a 2:1 wt % of mucin to PC IAM particles).

[3] = tested on: mucin immobilized to IAM.PC.DD2; assay: HPLC on MIC column (2:1 mucin to PC IAM particles): retention time, k′MIC, derived Km and Peff MIC; conditions: for log k′MIC / K′MIC: MIC 2:1; for k′MIC / Retention Time: MIC column 2:1 mucin:IAM, MPS pH 7.4; for Retention Time: isocratic 0.3 ml/min; for Peff MIC (×10^−4 cm/s): determined by linear equation; for Dm: membrane diffusion coefficient calculated from molecular weight
Procedure: [formula] where Dm is the membrane diffusion coefficient of the solute, Km is the membrane equilibrium constant, and L is the membrane thickness (Stein, W., Transport and Diffusion Across Cell Membranes, Academic Press, Orlando, Fla. (1986)). […] Since molecular weight, MW, is proportional to molecular size, Dm may also written as,
[formula] Thus, Dm can be calculated from the molecular weight. Furthermore, Km is calculated by the following equation, Km−(Vm/Vs)k′, [4] where Vm is the volume of the mobile phase, Vs is the internal volume of the stationary phase, and k′ is the partition ratio (Pidgeon and Ong, Chemtech. June, 38-48 (1995)). The partition ratio is determined by the equation, k′−(tr−to)/to, [5] where tr is the retention time of the drug and to is the void volume of the column. Both tr and to can be experimentally determined in order to obtain k′.
Equation 2 can be used to determine Km for a given MIC medium. Both Dm and L are known from the discussion above, and Peff can be calculated for various drugs having known in vivo absorption. For example, a number of drug permeability coefficients, Peff, derived from in vivo experiments are listed in literature. […] See Example 5 below.

Caco-2 = conditions: from literature, cited from earlier work
[4] = cited from earlier work
[5] = single-pass perfusions, cited from earlier work

SMILES | log k′IAM [1] | (1:2) k′ (pH 3) [2] | (1:2) k′ (pH 5) [2] | (1:2) k′ (pH 7) [2] | (2:1) k′ (pH 3) [2] | (2:1) k′ (pH 5) [2] | (2:1) k′ (pH 7) [2] | δ = log k′MIC − log k′IAM [3] | log k′MIC [3] | K′MIC ([3]; Table 5) | K′MIC ([3]; Table 6) | k′MIC [3] | Retention Time [3] | Peff MIC (×10^−4 cm/s) ([3]; Table 5) | Peff MIC (×10^−4 cm/s) ([3]; Table 6) | Dm [3] | Peff Caco-2 (×10^−6 cm/s) (Caco-2; Table 5) | Peff Caco-2 (×10^−6 cm/s) (Caco-2; Table 6) | further results
CC(C)NCC(O)COc1cccc2ccccc12 (centres unmarked) [Propranolol] | 1.75 | 75.67 | 92.33 | 99.00 | 49.00 | 59.00 | 99.00 | 0.10 | 1.85 | 70.43 | 70.43 | 70.4286 | 5.0 | 4.24 ×10^−4 cm/s | 4.24 ×10^−4 cm/s | 0.0034 | 21.8 ×10^−6 cm/s | 21.8 ×10^−6 cm/s | –
CC(C)(C)NCC(O)c1cc(O)cc(O)c1 (centres unmarked) [Terbutaline] | 0.50 | 45.67 | 49.00 | 39.00 | 34.71 | 37.57 | 35.67 | 1.14 | 1.64 | 43 | 43.29 | 43.2857 | 3.1 | 1.21 ×10^−4 cm/s | 1.21 ×10^−4 cm/s | 0.0036 | 0.47 ×10^−6 cm/s | 0.47 ×10^−6 cm/s | k′MIC (1:2) ([2]; column 1:2, 0.32 μm, pH 7, Table 9): 39; k′MIC (2:1) ([2]; column 2:1, 0.36 μm, pH 7, Table 9): 35.7; % Absorbed ([4]; Table 5): 60%; % Absorbed ([4]; Table 6): 60%; % Absorbed ([4]; Table 7): 60%; Peff Loc-I-Gut (×10^−4 cm/s) ([5]; Table 5): 0.3 ×10^−4 cm/s; Peff Loc-I-Gut (×10^−4 cm/s) ([5]; Table 6): 0.3 ×10^−4 cm/s; Peff Loc-I-Gut (×10^−4 cm/s) ([5]; Table 9): 0.3 ×10^−4 cm/s
